Test systems include OVCAR-4 ovarian; SNB-75 CNS; UACC-257 melanoma; UACC-62 melanoma; KM12 colon; MDA-MB-231 breast; CAKI-1 renal; HCT-116 colon.
Holding throughout (assay): NCI tumour cell line growth inhibition, 48 h

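Method: 48-hour compound exposure of cells in 96-well plates, five concentrations, linear interpolation of endpoints. GI50 is the concentration that inhibits growth by half. The concentration for full growth arrest is given as TGI.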

Take `N#CSCC1CC(O)(c2ccccc2)CC(c2ccc(Cl)cc2)O1` (centres undefined): the GI50 in the test on OVCAR-4 ovarian is 4.44 µM; in the test on SNB-75 CNS, 3.58 µM; in the test on UACC-257 melanoma, 3.29 µM; in the test with UACC-62 melanoma it was 3.31 µM; in the test on KM12 colon, 1.77 µM; with MDA-MB-231 breast it was 2.8 µM. For the same molecule, the GI50 in the test on CAKI-1 renal is 3.2 µM; with HCT-116 colon, 1.62 µM. Moreover, the TGI in the test with OVCAR-4 ovarian came to 15.3 µM; with SNB-75 CNS it was 13.3 µM; with UACC-257 melanoma, 9.32 µM; with UACC-62 melanoma, 10.9 µM; with KM12 colon it was 3.36 µM; in the test on MDA-MB-231 breast, 11.2 µM. Besides, the TGI with CAKI-1 renal came to 9.51 µM; in the test on HCT-116 colon, 3.1 µM.
As for `OCC#CCCCCOCC#Cc1ccccc1C#CCOCCCCC#CCO`, the GI50 with OVCAR-4 ovarian is 14.8 µM; with SNB-75 CNS, 20.6 µM; in the test with UACC-257 melanoma it was 37.3 µM; in the test on UACC-62 melanoma, 18.4 µM; with KM12 colon it was 19.6 µM; in the test on MDA-MB-231 breast, 16.1 µM. Also, the GI50 in the test with CAKI-1 renal is 27.2 µM; in the test with HCT-116 colon, 22.5 µM. Moreover, the TGI was 53.9 µM with OVCAR-4 ovarian; 66.2 µM in the test with SNB-75 CNS; > 100 µM in the test on UACC-257 melanoma; 34.3 µM in the test on UACC-62 melanoma; 40.5 µM in the test on KM12 colon; 38.3 µM with MDA-MB-231 breast. Also, the TGI with CAKI-1 renal is 64.8 µM; in the test with HCT-116 colon, > 100 µM.
As to `COc1cc2c(c(OC)c1OC)C(=O)c1c-2n(CCCN=[N+]=[N-])c(=O)c2cc([N+](=O)[O-])ccc12`, the GI50 with OVCAR-4 ovarian is 46.8 µM; in the test on SNB-75 CNS, 19.4 µM; in the test on UACC-257 melanoma, > 100 µM; in the test with UACC-62 melanoma it was 39.7 µM; in the test with KM12 colon it was > 100 µM; with MDA-MB-231 breast, 35.8 µM. For the same molecule, the GI50 with CAKI-1 renal is 60.6 µM; in the test with HCT-116 colon, 36.1 µM. For the same molecule, the TGI was > 100 µM in the test with OVCAR-4 ovarian; 54.9 µM in the test with SNB-75 CNS; > 100 µM in the test with UACC-257 melanoma; > 100 µM in the test on UACC-62 melanoma; > 100 µM with KM12 colon; > 100 µM with MDA-MB-231 breast. The TGI in the test on CAKI-1 renal and in the test on HCT-116 colon was > 100 µM in each case.
For `C[C@@H]1CC[C@@H]2[C@@H]1[C@H](OC(=O)c1ccc3ccccc3c1)[C@]1(C3CCCCC3)C[C@@H](OC(=O)CO)[C@@]2(C)O1`, the GI50 in the test with OVCAR-4 ovarian was 10.8 µM; in the test on SNB-75 CNS it was 0.546 µM; in the test with UACC-257 melanoma, 12.9 µM; in the test on UACC-62 melanoma, 14.3 µM; in the test on KM12 colon, 11.1 µM; with MDA-MB-231 breast it was 13.6 µM. In addition, the GI50 in the test on CAKI-1 renal is 0.0391 µM; in the test with HCT-116 colon it was 6.46 µM. In addition, the TGI in the test on OVCAR-4 ovarian stood at 24.8 µM; in the test on SNB-75 CNS it was 18.8 µM; in the test on UACC-257 melanoma it was 26.3 µM; with UACC-62 melanoma, 28.5 µM; in the test with KM12 colon, 26.5 µM; in the test with MDA-MB-231 breast, 29.3 µM. Moreover, the TGI in the test with CAKI-1 renal is 10.9 µM; in the test on HCT-116 colon, 19.6 µM.
On to `O=C(Nc1nc(-c2ccccc2)cs1)c1cc(O)c(O)c(O)c1`, for which the GI50 with OVCAR-4 ovarian was 2.22 µM; in the test with SNB-75 CNS, 1.92 µM; in the test with UACC-257 melanoma, 7.84 µM; with UACC-62 melanoma, 3.02 µM; with KM12 colon it was 8.02 µM; with MDA-MB-231 breast, 1.58 µM. The GI50 with CAKI-1 renal is 1.42 µM; with HCT-116 colon it was 2.97 µM. The TGI in the test on OVCAR-4 ovarian was 57.3 µM; with SNB-75 CNS, > 100 µM; in the test with UACC-257 melanoma, 52.1 µM; with UACC-62 melanoma, 16.5 µM; with KM12 colon it was 26.9 µM; in the test on MDA-MB-231 breast it was 24.4 µM. The TGI in the test on CAKI-1 renal was 16.6 µM; in the test on HCT-116 colon it was 16.5 µM.
`Cc1ccc(NC(=O)N2CCCCC2)cc1[N+](=O)[O-]`: the GI50 in the test on OVCAR-4 ovarian, in the test with SNB-75 CNS, with UACC-257 melanoma, in the test on UACC-62 melanoma, with KM12 colon and in the test on MDA-MB-231 breast was > 100 µM throughout. Moreover, the GI50 in the test with CAKI-1 renal and in the test with HCT-116 colon was > 100 µM each time. The TGI in the test on OVCAR-4 ovarian, in the test with SNB-75 CNS, in the test on UACC-257 melanoma, in the test on UACC-62 melanoma, in the test with KM12 colon and in the test with MDA-MB-231 breast was > 100 µM throughout. In addition, the TGI in the test with CAKI-1 renal and in the test on HCT-116 colon was > 100 µM each time.
As for `CNC1=CC(=O)C2=C(C1=O)C1C3=C(C(=O)C(Br)=C(OC)C3=O)C2c2ccccc21` (centres undefined), the GI50 in the test with OVCAR-4 ovarian was 2.3 µM; with SNB-75 CNS it was 5.69 µM; in the test on UACC-257 melanoma, 4.58 µM; in the test on UACC-62 melanoma it was 1.47 µM; in the test on KM12 colon it was 1.87 µM; with MDA-MB-231 breast, 1.41 µM. For the same molecule, the results for the GI50 in the test on CAKI-1 renal and in the test with HCT-116 colon were 1.89 µM and 1.87 µM, respectively. Moreover, the TGI was 15.6 µM in the test with OVCAR-4 ovarian; 18.2 µM with SNB-75 CNS; > 50 µM in the test with UACC-257 melanoma; 3.89 µM in the test with UACC-62 melanoma; 5.93 µM in the test on KM12 colon; 3.17 µM in the test on MDA-MB-231 breast. In addition, the results for the TGI in the test on CAKI-1 renal and in the test with HCT-116 colon were 4.83 µM and 5.7 µM, respectively.
For the molecule `CCOc1ccc(NC(=O)c2cc3ccccc3cc2O)cc1`, the GI50 with OVCAR-4 ovarian is > 100 µM; with SNB-75 CNS it was 34.9 µM; in the test on UACC-257 melanoma, > 100 µM; in the test with UACC-62 melanoma, 57.4 µM; in the test with KM12 colon, > 100 µM; with MDA-MB-231 breast it was 53.8 µM. Further, the GI50 in the test with CAKI-1 renal is > 100 µM; in the test on HCT-116 colon, 71.2 µM. Moreover, the TGI in the test on OVCAR-4 ovarian, in the test with SNB-75 CNS, in the test with UACC-257 melanoma, in the test with UACC-62 melanoma, in the test with KM12 colon and in the test with MDA-MB-231 breast was > 100 µM throughout. Besides, the TGI in the test with CAKI-1 renal and in the test with HCT-116 colon was > 100 µM throughout.
`N=C1N=C(N)S/C1=C\c1ccc2ncccc2c1`: the GI50 with OVCAR-4 ovarian is > 25 µM; with SNB-75 CNS, > 16.3 µM; in the test with UACC-257 melanoma, > 25 µM; in the test on UACC-62 melanoma, > 25 µM; with KM12 colon, > 25 µM; in the test on MDA-MB-231 breast, > 25 µM. Moreover, the GI50 in the test with CAKI-1 renal and in the test on HCT-116 colon was > 25 µM each time. Also, the TGI in the test with OVCAR-4 ovarian, in the test on SNB-75 CNS, in the test on UACC-257 melanoma, with UACC-62 melanoma, with KM12 colon and in the test with MDA-MB-231 breast was > 25 µM in each case. The TGI with CAKI-1 renal and in the test with HCT-116 colon was > 25 µM throughout.

For the origin of these results see PubChem BioAssay (NCI).
